Assay results published in PMC3896386 (Journal of medicinal chemistry, 2013).

Columns and labels:
[1] = target: T1, RyR2-R4496C mutant HEK293 cell line (Mus musculus, UniProt E9Q401, R4495C); conditions: previously reported; cited from earlier work
[2] = target: T1, RyR2-R4496C mutant HEK293 cell line

T1 sequence (E9Q401 whole entry R4495C): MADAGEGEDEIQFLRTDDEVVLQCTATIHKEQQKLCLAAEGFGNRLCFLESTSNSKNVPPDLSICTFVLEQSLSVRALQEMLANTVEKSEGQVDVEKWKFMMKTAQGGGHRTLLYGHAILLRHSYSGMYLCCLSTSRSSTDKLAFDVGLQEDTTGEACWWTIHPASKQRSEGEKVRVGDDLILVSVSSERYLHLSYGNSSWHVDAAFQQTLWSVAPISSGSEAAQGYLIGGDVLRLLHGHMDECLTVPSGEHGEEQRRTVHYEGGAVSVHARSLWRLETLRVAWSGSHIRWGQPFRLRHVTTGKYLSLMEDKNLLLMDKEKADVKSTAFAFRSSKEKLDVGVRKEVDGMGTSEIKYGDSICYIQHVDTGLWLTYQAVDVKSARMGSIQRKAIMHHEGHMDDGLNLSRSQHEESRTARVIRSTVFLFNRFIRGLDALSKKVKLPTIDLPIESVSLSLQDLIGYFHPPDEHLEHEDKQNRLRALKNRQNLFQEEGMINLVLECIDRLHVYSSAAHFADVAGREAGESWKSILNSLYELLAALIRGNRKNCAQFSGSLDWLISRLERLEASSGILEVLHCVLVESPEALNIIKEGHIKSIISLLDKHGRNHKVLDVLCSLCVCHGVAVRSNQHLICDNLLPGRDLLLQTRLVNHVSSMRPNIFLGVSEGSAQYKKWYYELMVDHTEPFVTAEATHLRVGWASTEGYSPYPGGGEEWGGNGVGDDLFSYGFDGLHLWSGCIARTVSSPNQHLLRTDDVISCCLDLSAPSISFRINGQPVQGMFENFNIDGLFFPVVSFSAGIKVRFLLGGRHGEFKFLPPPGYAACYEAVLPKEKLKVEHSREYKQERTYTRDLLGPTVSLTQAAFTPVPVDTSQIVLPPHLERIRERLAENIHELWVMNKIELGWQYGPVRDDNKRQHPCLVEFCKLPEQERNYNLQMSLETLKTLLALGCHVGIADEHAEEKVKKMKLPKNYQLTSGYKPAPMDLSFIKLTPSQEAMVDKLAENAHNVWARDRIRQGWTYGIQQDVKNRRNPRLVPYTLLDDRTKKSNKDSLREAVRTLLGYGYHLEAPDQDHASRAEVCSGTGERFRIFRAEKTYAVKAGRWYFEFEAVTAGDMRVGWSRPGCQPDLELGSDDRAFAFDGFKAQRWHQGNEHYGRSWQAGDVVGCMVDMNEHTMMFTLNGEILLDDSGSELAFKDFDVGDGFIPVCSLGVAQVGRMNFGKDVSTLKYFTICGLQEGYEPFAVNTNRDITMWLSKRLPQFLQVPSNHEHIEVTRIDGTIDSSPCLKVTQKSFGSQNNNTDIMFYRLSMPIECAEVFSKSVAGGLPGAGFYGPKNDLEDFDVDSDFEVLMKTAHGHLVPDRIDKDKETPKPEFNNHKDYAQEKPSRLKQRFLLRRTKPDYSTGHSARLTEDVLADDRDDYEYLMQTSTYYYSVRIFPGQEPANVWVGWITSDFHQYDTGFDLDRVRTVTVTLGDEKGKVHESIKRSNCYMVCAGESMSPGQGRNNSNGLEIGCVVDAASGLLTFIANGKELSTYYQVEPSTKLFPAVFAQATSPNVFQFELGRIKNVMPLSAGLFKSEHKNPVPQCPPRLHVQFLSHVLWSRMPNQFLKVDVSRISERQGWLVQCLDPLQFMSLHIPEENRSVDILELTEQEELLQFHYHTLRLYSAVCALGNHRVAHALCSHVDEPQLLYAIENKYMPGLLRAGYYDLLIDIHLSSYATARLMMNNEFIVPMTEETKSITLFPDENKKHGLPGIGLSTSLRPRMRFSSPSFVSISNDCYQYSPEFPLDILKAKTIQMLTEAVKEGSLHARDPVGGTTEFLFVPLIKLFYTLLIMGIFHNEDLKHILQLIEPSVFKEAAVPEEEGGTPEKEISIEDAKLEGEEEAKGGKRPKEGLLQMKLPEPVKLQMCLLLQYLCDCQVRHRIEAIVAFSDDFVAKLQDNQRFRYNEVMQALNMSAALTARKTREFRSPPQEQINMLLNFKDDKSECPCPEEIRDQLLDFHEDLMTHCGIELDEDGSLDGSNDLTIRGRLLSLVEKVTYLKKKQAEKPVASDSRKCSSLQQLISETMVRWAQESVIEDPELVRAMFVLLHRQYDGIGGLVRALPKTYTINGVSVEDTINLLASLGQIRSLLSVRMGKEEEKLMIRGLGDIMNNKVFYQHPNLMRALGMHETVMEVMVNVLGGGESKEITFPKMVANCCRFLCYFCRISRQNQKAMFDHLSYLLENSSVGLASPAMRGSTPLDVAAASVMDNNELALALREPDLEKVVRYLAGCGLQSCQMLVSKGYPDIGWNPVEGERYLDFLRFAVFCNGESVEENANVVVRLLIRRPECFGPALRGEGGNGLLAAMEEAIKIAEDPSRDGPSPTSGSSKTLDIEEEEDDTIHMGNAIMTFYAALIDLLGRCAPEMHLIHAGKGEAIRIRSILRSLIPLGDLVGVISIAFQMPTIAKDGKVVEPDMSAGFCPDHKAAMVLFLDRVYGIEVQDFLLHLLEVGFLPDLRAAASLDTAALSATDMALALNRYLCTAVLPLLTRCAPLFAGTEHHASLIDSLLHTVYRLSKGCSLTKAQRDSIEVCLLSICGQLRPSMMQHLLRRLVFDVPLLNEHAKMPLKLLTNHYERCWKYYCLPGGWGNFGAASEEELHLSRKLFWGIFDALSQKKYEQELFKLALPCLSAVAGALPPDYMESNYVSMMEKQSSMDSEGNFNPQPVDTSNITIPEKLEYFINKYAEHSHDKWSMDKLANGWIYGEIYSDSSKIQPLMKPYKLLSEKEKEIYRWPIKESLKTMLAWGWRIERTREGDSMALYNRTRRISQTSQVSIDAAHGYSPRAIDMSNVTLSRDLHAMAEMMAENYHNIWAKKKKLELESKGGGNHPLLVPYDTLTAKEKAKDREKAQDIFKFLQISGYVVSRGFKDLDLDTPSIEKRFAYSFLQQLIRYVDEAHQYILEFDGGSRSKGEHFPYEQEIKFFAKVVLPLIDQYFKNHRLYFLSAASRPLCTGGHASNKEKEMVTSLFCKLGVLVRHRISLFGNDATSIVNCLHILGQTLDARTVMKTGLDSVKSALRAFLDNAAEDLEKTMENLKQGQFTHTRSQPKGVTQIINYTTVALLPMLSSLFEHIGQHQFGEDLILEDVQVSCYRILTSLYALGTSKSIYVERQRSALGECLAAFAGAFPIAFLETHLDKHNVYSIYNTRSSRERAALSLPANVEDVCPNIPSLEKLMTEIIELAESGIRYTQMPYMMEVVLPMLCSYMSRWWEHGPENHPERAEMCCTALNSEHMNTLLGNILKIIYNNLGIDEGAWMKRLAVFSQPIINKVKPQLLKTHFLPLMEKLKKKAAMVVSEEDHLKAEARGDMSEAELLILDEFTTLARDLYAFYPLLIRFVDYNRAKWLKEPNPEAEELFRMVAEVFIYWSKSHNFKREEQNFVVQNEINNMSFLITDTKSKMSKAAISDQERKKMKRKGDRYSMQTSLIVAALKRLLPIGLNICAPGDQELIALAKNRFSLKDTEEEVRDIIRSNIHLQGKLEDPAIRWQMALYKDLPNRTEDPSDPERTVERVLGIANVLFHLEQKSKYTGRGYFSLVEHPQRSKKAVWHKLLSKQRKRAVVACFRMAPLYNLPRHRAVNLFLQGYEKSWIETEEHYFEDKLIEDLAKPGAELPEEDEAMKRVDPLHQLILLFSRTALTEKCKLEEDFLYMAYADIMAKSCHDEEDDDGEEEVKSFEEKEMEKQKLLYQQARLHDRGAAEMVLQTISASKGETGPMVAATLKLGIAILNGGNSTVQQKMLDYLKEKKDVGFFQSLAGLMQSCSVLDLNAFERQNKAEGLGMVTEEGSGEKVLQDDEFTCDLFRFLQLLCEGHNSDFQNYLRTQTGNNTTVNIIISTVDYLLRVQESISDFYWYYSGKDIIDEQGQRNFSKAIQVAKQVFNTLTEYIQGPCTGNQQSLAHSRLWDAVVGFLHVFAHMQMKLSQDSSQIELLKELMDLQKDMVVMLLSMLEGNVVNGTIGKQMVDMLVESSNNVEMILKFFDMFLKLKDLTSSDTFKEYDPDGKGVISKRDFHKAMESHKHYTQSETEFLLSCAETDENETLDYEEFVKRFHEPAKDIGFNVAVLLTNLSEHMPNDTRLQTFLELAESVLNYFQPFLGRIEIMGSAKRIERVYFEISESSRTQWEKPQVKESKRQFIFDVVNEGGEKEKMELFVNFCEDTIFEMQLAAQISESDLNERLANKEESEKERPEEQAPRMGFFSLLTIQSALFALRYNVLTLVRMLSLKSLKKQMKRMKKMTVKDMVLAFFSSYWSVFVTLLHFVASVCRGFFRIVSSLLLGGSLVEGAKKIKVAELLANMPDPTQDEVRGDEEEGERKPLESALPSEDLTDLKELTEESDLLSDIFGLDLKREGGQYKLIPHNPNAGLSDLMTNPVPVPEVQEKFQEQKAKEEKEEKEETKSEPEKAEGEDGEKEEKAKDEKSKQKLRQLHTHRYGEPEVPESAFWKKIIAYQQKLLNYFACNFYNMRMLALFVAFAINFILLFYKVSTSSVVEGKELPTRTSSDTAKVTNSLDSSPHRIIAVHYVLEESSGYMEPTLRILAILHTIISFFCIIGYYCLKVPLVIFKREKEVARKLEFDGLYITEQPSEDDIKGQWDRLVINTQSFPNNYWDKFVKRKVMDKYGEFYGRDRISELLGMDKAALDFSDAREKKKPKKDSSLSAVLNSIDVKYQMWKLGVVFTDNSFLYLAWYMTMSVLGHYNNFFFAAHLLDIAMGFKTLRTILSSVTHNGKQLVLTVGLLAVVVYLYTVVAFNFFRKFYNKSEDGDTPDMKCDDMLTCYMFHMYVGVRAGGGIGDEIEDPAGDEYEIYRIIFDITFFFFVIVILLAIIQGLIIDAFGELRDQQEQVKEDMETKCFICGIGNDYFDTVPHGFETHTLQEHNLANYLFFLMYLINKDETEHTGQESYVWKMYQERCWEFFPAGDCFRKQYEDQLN

Q: With `COc1ccccc1OCCNCC(O)COc1cccc2[nH]c3ccccc3c12` (stereo not drawn) [carvedilol 1, carvedilol] as the compound, how does the “ability to inhibit SOICR” value [1] read?
A: Its value is “ca. 10 μmolar”.

Q: Which “decrease of SOICR-inhibiting activity on lactamization of 34” value ([2]; relative to 34) does the source give for `COc1ccccc1OCCN1CCC(COc2cccc3[nH]c4ccccc4c23)OCC1=O` (stereo not drawn) [compound 35, 7-[(9H-carbazol-4-yloxy)methyl]-4-[2-(2-methoxyphenoxy)ethyl]-1,4-oxazepan-3-one] here?
A: Its value is “more than 6 fold”.

Q: For `COc1ccccc1OCCNCC(O)COc1ccc2c(c1)Nc1ccccc1S2(=O)=O` (stereo not drawn) [compound 67, 2-(2-Hydroxy-3-{[2-(2-methoxyphenoxy)ethyl]amino}propoxy)-10H-5λ6,10-phenothiazine-5,5-dione], which “decrease of SOICR-inhibiting activity on oxidation of 66 to the sulfone” value ([2]; relative to 66) is on record?
A: Its value is “more than 10 fold”.
